# Article PMC12621184, “Synthesis and Pharmacological Characterization of Nociceptin/Orphanin FQ Dimeric Ligands” (Journal of Medicinal Chemistry, 2025)
# Several values for one entry are separate records, joined by “and”; a condition that tells them apart may be missing. Equal entries are not always repeated. Bridge positions count the residues as written; N and C are the ends. Peptide text beside a SMILES is read from it. I, II: the chains in the order shown.
# Key:
# [1] = system: loss of the righting reflex (RR) in mice; assay: Loss of the righting reflex assay in mice; assay type: in vivo, mouse; details: icv
# Procedure: All of the experimental procedures adopted in the in vivo studies comply with the European Directive 2010/63/EU on protecting animals used for scientific purposes and Italian Legislative Decree no. 26 of March 4, 2014. These experiments were approved by the Animal Welfare Body of the University of Ferrara and by the Ministry of Health (authorization number 677/2024-PR). In vivo studies have been reported following ARRIVE guidelines. All experiments were conducted with mice bred and housed in the University of Ferrara’s animal facility under specific pathogen-free conditions. All mice were housed in cages with individual ventilation, with a constant temperature of 21 °C, 60% humidity, and a 12 h light/dark cycle. Food and water were provided ad libitum. CD-1 male and female mice, aged 2 to 4 months, were used. Details about the generation of NOP(−/−) and NOP(+/+) mice have been published previously; , these mice have been backcrossed on CD-1 strain in our laboratories. NOP(+/+) and NOP(−/−) littermates were obtained by mating with NOP(±) mice. All mice were genotyped using the polymerase chain reaction previously described. All mice were used only once. The RR assay was performed as previously described. […] Diazepam 15 mg/kg was injected ip. When the animals lost RR, they were placed in a plastic cage, and the time was recorded by an expert observer, blind to drug treatments and/or genotype. Animals were judged to have regained the RR response when they could correct themselves three times within 30 s. Sleeping time is defined as the amount of time between the loss and regaining of the RR; it was rounded to the nearest minute.
# Concentration-response curves to agonists were analyzed by a four-parameter logistic nonlinear regression model: Effect = baseline + (E max – baseline)/(1 + 10^((logEC50–log[ligand])slope)). […] Experimental data were expressed as mean ± sem of at least 5 experiments. Potency values were expressed as the mean and CL95%. In vitro E max values were analyzed by one-way ANOVA, while in vivo latency data were evaluated by one-way ANOVA followed by Dunnett’s post hoc test. The proportion of mice losing the righting reflex was compared by Fisher’s exact test performed on raw data. GraphPad Prism 10.0 software was used for all of the analyses. The terminology employed is consistent with the International Union of Basic and Clinical Pharmacology (IUPHAR) recommendations. ,
# human δ opioid receptor = target: T1, human δ opioid receptor (Homo sapiens, UniProt P41143); assay: Calcium mobilization assay, CHO cells with δ receptor and chimeric G protein; assay type: cell-based; details: CHO cells coexpressing human δ receptor and GαqG66Di5; 5 experiments in duplicate; read-out: calcium mobilization at δ receptor, concentration up to which inactive
# T1 construct: expressed in transfected cells
# Procedure: Chinese hamster ovary (CHO) cells stably coexpressing the human NOP, μ, or κ opioid receptors and the Gαqi5 protein or the human δ and the GαqG66Di5 protein were used in this assay. , Cells were cultured in DMEM/F-12 (1:1) medium supplemented with 10% FBS, 2 mM L-glutamine, […], 100 IU/mL penicillin, and 100 IU/mL streptomycin. Cells were maintained at 37 °C in a humidified atmosphere with 5% CO2 and were seeded at 50 000 cells/well into 96-well black, clear-bottom plates 24 h before test. Loading for 45 min with a solution consisting of HBSS supplemented with 2.5 mM probenecid, 3 μM Fluo-4 AM, and 0.01% pluronic acid ensures the calcium-sensitive dye (Fluo-4) reaches the needed concentration inside the cell, while the exchange of the solution with 100 μL/well of buffer consisting of HBSS with 20 mM HEPES, 2.5 mM probenecid, and 500 μM Brilliant Black allows for fluorescence background to decrease. Serial dilutions of ligands were prepared in HBSS buffer with 20 mM HEPES and 0.02% bovine serum albumin (BSA) to minimize the ligands’ stickiness to plasticware. The automated microplate reader FlexStation II (Molecular Devices, CA, US) was employed at 37 °C to detect changes in fluorescence intensity. The effects of all compounds were expressed as the maximum change in percentage over the baseline fluorescence measured in samples treated with vehicles. […]
# human NOP = human NOP (Homo sapiens, UniProt P41146); assay: NOP receptor–G protein interaction BRET assay; assay type: biochemical; parameters: expressed in transfected cells; host or cells: membranes of HEK293 cells stably coexpressing NOP-RLuc and Gβ1-RGFP; details: N = 5 experiments in duplicate
# Method in brief: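 Membranes (3 μg protein) from HEK293 cells stably coexpressing NOP-RLuc and Gβ1-RGFP were tested with 2 μM Prolume Purple coelenterazine at room temperature. BRET ratios (510/405 nm) were averaged over 10 min, vehicle-subtracted and normalized to N/OFQ maximal effect.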
# T1 sequence (P41143 whole entry): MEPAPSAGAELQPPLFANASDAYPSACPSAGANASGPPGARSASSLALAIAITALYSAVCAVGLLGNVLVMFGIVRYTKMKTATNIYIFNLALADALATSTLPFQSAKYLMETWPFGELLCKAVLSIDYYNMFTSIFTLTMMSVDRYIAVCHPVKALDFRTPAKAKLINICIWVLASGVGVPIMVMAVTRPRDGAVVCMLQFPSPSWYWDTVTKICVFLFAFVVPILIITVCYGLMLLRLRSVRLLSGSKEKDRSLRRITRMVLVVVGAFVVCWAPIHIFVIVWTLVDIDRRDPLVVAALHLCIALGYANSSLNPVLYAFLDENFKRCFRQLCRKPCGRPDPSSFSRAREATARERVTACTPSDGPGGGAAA
smiles,measurement,setting,value
"C[C@H](NC(=O)CNC(=O)[C@@H](NC(=O)[C@H](Cc1ccccc1)NC(=O)CNC(=O)CNC(=O)[C@@H](N)Cc1ccccc1)[C@@H](C)O)C(=O)N[C@@H](CCCNC(=N)N)C(=O)N[C@@H](CCCCN)C(=O)N[C@@H](CO)C(=O)N[C@@H](C)C(=O)N[C@@H](CCCNC(=N)N)C(=O)N[C@@H](CCCCN)C(=O)N[C@@H](CSSC[C@H](NC(=O)[C@H](CCCCN)NC(=O)[C@H](CCCNC(=N)N)NC(=O)[C@H](C)NC(=O)[C@H](CO)NC(=O)[C@H](CCCCN)NC(=O)[C@H](CCCNC(=N)N)NC(=O)[C@H](C)NC(=O)CNC(=O)[C@@H](NC(=O)[C@H](Cc1ccccc1)NC(=O)CNC(=O)CNC(=O)[C@@H](N)Cc1ccccc1)[C@@H](C)O)C(=O)N[C@@H](C)C(=O)N[C@@H](CC(N)=O)C(=O)N[C@@H](CCC(N)=O)C(N)=O)C(=O)N[C@@H](C)C(=O)N[C@@H](CC(N)=O)C(=O)N[C@@H](CCC(N)=O)C(N)=O [1h, [[Cys^14]N/OFQ-NH2]2] (I: H-FGGFTGARKSARKCANQ-NH2 / II: H-FGGFTGARKSARKCANQ-NH2; disulfide I:14-II:14; N-terminus assumed)","mice that lost the RR, 3 nmol","[1]; 3 nmol, CD-1 mice, N = 8–10 per group",75%
same,"mice that lost the RR, 10 nmol","[1]; 10 nmol, CD-1 mice, N = 8–10 per group",all mice
same,sleep duration (interval between loss and recovery of the RR),"[1]; 3 and 10 nmol, only mice that lost the RR, experimental cutoff 420 min",≥ 420 min
same,potency in eliciting loss of the RR relative to N/OFQ,"[1]; mice, vs N/OFQ (and N/OFQ-NH2)",3 fold
same,duration of the effect on RR,[1]; experimental cutoff 7 h,≥ 7 h
same,EC50,human δ opioid receptor,> 1000 nM
same,NOP–G protein interaction E max ± sem,"human NOP; effects normalized to N/OFQ-NH2 (E max = 1), mean ± sem",0.80 ± 0.08
same,EC50,"human NOP; membranes from HEK293 cells coexpressing NOP-RLuc and Gβ1-RGFP, room temperature, mean (CL95%), read-out: NOP–G protein interaction pEC50 (CL95%) (converted)",< 1 nM and 0.123 nM
